Experiment [1] concerns the target T1, mammalian GABAA α1β3γ2 receptor (Homo sapiens, UniProt P14867+P18507+P28472).
T1 construct: gene GABRA1; with GABRB3 (β3) and GABRG2 (γ2) subunits
Put plainly: whole-cell planar patch clamp, block of GABA EC80 current in transfected HEK293 cells. Format: cell-based. (Patch clamp records ionic current or voltage across a cell membrane.)

In experiment [2] the target is T1, mammalian GABAA α1β3γ2 receptor. Put plainly: whole-cell planar patch clamp, block of GABA EC80 current in transfected HEK293 cells (antagonist positive control). Format: cell-based.

As a reminder, the IC50 is the concentration that gives 50% inhibition. Read a high IC50 as a need for much substance.

T1 sequence (P14867 28-456): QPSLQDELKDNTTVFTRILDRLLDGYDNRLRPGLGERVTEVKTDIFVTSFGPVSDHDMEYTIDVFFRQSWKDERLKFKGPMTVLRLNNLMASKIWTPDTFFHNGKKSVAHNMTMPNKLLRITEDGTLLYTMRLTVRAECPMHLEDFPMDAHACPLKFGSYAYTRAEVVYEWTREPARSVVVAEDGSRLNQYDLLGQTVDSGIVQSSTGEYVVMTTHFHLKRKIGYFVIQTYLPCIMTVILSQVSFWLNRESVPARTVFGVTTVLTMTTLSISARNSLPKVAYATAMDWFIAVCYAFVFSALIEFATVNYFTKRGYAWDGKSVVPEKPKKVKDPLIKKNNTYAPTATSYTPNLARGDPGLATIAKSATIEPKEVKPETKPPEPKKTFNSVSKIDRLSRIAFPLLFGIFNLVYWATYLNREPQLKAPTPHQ
T1 sequence (P28472 26-473): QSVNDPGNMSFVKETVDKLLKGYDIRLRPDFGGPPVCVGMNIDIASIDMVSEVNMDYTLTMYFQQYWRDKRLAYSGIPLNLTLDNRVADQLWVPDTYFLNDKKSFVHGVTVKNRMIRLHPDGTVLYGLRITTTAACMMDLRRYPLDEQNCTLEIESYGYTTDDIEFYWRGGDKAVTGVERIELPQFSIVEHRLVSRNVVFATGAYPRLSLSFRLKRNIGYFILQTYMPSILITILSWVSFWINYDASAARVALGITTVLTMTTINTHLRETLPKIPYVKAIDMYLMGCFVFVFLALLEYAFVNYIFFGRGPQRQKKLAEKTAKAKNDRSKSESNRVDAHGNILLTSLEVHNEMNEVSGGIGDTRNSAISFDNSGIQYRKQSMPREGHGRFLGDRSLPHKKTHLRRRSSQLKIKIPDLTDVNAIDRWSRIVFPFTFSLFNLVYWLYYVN
T1 sequence (P18507 40-475): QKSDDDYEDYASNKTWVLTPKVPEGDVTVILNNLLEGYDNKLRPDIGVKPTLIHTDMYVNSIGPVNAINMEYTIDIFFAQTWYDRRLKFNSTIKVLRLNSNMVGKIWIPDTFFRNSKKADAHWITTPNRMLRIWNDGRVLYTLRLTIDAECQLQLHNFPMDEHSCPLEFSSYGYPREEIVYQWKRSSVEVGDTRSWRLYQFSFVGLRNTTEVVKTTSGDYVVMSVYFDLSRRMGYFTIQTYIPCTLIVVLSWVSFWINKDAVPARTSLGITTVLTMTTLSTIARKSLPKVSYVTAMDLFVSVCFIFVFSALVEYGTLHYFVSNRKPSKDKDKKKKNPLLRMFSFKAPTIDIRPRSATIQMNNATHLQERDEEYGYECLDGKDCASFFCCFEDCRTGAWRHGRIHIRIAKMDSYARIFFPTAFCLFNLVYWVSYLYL

For the molecule `N#Cc1nn(-c2c(Cl)cc(C(F)(F)F)cc2Cl)c(N)c1[S+]([O-])C(F)(F)F` (centres unmarked) [fipronil], the IC50 in experiment [1] was 4.9 µM.

`C=C(C)[C@@H]1[C@H]2OC(=O)[C@@H]1[C@]1(O)C[C@H]3OC34C(=O)O[C@H]2[C@@]41C.CC(C)(O)[C@@H]1[C@H]2OC(=O)[C@@H]1[C@]1(O)C[C@H]3OC34C(=O)O[C@H]2[C@@]41C` (some centres unmarked) [picrotoxin] had an IC50 in experiment [2] of 3.9 µM.

Source of the values: PMC5334708, “Mosquitocidal Activity and Mode of Action of the Isoxazoline Fluralaner” (International Journal of Environmental Research and Public …, 2017).
